Measured values published in patent US11512090B2, “Muscarinic acetylcholine M1 receptor antagonists” (PIPELINE THERAPEUTICS, INC., priority 2018, dated 2022).
Like-named read-outs stand apart in the source and are kept apart here.

What was measured:
Format in all cases: cell-based
human M1 receptor = target: T1, human M1 receptor (Homo sapiens, UniProt P11229); assay: In vitro functional assay of muscarinic acetylcholine receptor activity (aequorin calcium flux, antagonist mode vs EC80 acetylcholine), M1
T1 sequence (P11229 1-460): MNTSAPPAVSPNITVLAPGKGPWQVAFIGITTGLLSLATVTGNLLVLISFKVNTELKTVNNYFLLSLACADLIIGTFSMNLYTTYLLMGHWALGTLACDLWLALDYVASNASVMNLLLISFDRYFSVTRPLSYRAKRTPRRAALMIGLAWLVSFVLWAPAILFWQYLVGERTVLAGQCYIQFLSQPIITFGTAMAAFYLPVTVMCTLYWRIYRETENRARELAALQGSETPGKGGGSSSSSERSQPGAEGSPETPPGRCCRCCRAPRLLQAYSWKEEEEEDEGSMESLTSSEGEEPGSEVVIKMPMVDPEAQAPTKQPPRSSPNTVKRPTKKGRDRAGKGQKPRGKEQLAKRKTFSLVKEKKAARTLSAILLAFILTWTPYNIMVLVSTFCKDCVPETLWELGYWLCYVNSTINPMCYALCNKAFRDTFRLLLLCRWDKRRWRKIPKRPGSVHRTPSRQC
How it was run: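 CHO-K1 cells stably co-expressing human M1 and aequorin were loaded with 5 uM coelenterazine h for 4 h at room temperature in the dark. IC50 came from the drop in luminescence.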

M2 = target: T2, M2 (Homo sapiens, UniProt P08172); assay: In vitro functional assay of muscarinic acetylcholine receptor activity, M2
T2 sequence (P08172 1-466): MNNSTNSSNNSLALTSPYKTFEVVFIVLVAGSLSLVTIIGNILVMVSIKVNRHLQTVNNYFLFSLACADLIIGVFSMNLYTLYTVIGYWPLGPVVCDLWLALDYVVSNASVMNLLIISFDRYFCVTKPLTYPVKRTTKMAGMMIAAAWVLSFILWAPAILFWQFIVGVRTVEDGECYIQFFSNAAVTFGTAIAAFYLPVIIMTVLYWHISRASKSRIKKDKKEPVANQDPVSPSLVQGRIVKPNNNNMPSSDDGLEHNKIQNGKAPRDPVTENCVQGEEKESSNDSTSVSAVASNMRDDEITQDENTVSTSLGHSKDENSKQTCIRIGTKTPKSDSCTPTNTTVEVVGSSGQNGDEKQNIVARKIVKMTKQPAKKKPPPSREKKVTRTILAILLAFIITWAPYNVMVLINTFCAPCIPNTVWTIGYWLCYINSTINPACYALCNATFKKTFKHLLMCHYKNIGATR

M3 = M3 (Homo sapiens, UniProt P20309); assay: In vitro functional assay of muscarinic acetylcholine receptor activity, M3; details: antagonist IC50 at M3; read-out: M3 IC50
[1] = antagonist IC50 at M2, read-out: M2 IC50
[2] = CHO-K1 cells stably expressing human M1 receptor with Aequorin, decrease in EC80 acetylcholine response, read-out: M1 IC50

M3, sequence (P20309 whole entry): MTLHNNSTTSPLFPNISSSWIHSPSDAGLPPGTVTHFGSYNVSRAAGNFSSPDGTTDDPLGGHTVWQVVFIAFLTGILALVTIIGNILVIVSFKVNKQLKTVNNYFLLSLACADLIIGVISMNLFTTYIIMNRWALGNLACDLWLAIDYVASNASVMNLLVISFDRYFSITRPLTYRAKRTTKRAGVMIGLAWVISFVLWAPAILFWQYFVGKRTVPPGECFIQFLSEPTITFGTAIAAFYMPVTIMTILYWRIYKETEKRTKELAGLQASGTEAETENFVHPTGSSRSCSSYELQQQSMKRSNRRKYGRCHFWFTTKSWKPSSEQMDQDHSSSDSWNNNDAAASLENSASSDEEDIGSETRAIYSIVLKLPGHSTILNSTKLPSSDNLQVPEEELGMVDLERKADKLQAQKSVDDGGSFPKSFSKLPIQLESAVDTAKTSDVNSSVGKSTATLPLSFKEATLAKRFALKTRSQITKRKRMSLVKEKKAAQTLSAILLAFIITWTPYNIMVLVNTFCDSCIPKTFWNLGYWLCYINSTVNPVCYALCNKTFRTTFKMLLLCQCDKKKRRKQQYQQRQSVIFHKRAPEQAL

Compound	IC50 (human M1 receptor) [µM]	IC50 (M2; [1]) [µM]	IC50 (M3) [µM]	IC50 (human M1 receptor; [2]) [µM]	IC50 (M2) [µM]
N#Cc1ccc(N2C3CCC2CN(C(=O)CCOCc2cccc4nccn24)C3)nc1 [Example 186, 6-{3-[3-({imidazo[1,2-a]pyridin-5-yl}methoxy)propanoyl]-3,8-diazabicyclo[3.2.1]octan-8-yl}pyridine-3-carbonitrile]	< 0.1	> 10	1 to 10		
N#Cc1ccc(N2C3CCC2CN(C(=O)CCOCc2cccc4c2OCO4)C3)nc1 [Example 187, 6-(3-{3-[(2H-1,3-benzodioxol-4-yl)methoxy]propanoyl}-3,8-diazabicyclo[3.2.1]octan-8-yl)pyridine-3-carbonitrile]	0.1 to 1	> 10	> 10		
N#Cc1ccc(N2C3CCC2CN(C(=O)CCOCc2cccc4ncc(C(F)(F)F)n24)C3)nc1 [Example 188, 6-[3-(3-{[3-(trifluoromethyl)imidazo[1,2-a]pyridin-5-yl)methoxy}propanoyl)-3,8-diazabicyclo[3.2.1]octan-8-yl)pyridine-3-carbonitrile]		1 to 10	> 10	1 to 10	
O=C(CCNCc1cccc2ncnn12)N1CC2CCC(C1)N2c1ccc(-c2ccccc2)cn1 [Example 193, 1-[8-(5-phenylpyridin-2-yl)-3,8-diazabicyclo[3.2.1]octan-3-yl]-3-[({[1,2,4]triazolo[1,5-a]pyridin-5-yl}methyl)amino]propan-1-one]		> 10	1 to 10	1 to 10	
N#Cc1ccc(N2C3CCC2CN(C(=O)C2CC(=Cc4cccc5ncccc45)C2)C3)nc1 (stereo not drawn) [Example 194, 6-(3-{3-[(quinolin-5-yl)methylidene]cyclobutanecarbonyl}-3,8-diazabicyclo[3.2.1]octan-8-yl)pyridine-3-carbonitrile]	< 0.1		1 to 10		0.1 to 1
N#Cc1ccc(N2C3CCC2CN(C(=O)C2CC(=Cc4cccc5cnccc45)C2)C3)nc1 (stereo not drawn) [Example 195, 6-(3-{3-[(isoquinolin-5-yl)methylidene]cyclobutanecarbonyl}-3,8-diazabicyclo[3.2.1]octan-8-yl)pyridine-3-carbonitrile]		1 to 10	1 to 10	1 to 10	
N#Cc1ccc(N2C3CCC2CN(C(=O)[C@H]2C[C@H](Oc4cccc5ncsc45)C2)C3)nc1 [Example 197, 6-{3-[(1r,3r)-3-(1,3-benzothiazol-7-yloxy)cyclobutanecarbonyl]-3,8-diazabicyclo[3.2.1]octan-8-yl}pyridine-3-carbonitrile]	0.1 to 1	> 10	> 10		
